From patent US10364360B2, “Surface coating material, coating film, and hydrophilic oil repellent member” (MITSUBISHI MATERIALS CORPORATION, priority 2014, dated 2019)

Assay: Solubility of the compound in water
Type: physicochemical
Conditions: room temperature (25° C.)
Procedure: 23.5 g of perfluoro(3-dibutylaminopropionic acid) was neutralized with 1.5 g of calcium hydroxide in a methanol/water mixed solution. The precipitated crystals were separated by filtration, and dried at 100° C., whereby 23.5 g of perfluoro(3-dibutylaminopropionic acid) calcium represented by the following Formula (378) was obtained (yield of 97%). The solubility of the present compound in water at room temperature (25° C.) was 2 [g/100 g-H2O].

## O=C(O)C(F)(F)C(F)(F)N(C(F)(F)C(F)(F)C(F)(F)C(F)(F)F)C(F)(F)C(F)(F)C(F)(F)C(F)(F)F.[Ca] [Synthesis Example 3, perfluoro(3-dibutylaminopropionic acid) calcium]
  solubility of the present compound in water: 2 g/100 g-H2O
